Results from US11147272B2, “Pyridone compounds and agricultural and horticultural fungicides comprising the same as active ingredients” (MITSUI CHEMICALS AGRO, INC., priority 2017, dated 2021).

Assays:
Plasmopara viticola = experiment: Test Example G: Downy mildew on vine; conditions: Downy mildew on vine (Neomuscat); 250 ppm spray, 2.5 ml/pot; assessed 7 to 10 days after inoculation
Botrytis cinerea = experiment: Test Example B: Gray mold on tomato; conditions: Gray mold on tomato; class of control value
Magnaporthe grisea = experiment: whole plant or invertebrate; format: in vivo; conditions: Blast on rice; class of control value
Phytophthora infestans = experiment: whole plant or invertebrate; format: in vivo; conditions: Late blight on tomato; class of control value
[1] = test system: Blumeria graminis f. sp. hordei; experiment: Test Example D: Powdery mildew on barley; conditions: Powdery mildew on barley; class of control value
Alternaia brassicicola = experiment: Test Example C: Alternaria sooty spot on cabbage; format: in vivo; conditions: Alternaria sooty spot on cabbage; class of control value
Excerpt: Seeds of a test plant (cabbage variety: Shikidori) were planted and cultivated until the cotyledons extended.
<Control Value> Control value=100{1−(n/3)}

[2] = test system: Colletotrichum orbiculare; experiment: Test Example H: Anthracnose on cucumber; conditions: Anthracnose on cucumber (Sagami Hanjiro); 250 ppm spray, 2.5 ml/pot; assessed 6 to 10 days after inoculation
Puccinia recondita = experiment: Test Example E: Brown rust on wheat; format: in vivo; conditions: Brown rust on wheat; class of control value

CCn1c(-c2c(F)cc(F)cc2F)c(C(C)(C)C)cc(Br)c1=O [compound 70]
Test G control value class (Plasmopara viticola): L (50% or less control value)
Test B control value class (Botrytis cinerea): H (more than 50% control value)
Test A control value class (Magnaporthe grisea): H (more than 50% control value)
Test F control value class (Phytophthora infestans): L (50% or less control value)
Test D control value class [1]: H (more than 50% control value)
Test C control value class (Alternaia brassicicola): H (more than 50% control value)
Test H control value class [2]: H (more than 50% control value)
Test E control value class (Puccinia recondita): H (more than 50% control value)

CCn1c(-c2c(F)cc(OC)cc2F)c(C(OC)C(C)C)cc(Cl)c1=O (centres unmarked) [compound 71]
Test G control value class (Plasmopara viticola): L (50% or less control value)
Test B control value class (Botrytis cinerea): H (more than 50% control value)
Test A control value class (Magnaporthe grisea): H (more than 50% control value)
Test F control value class (Phytophthora infestans): L (50% or less control value)
Test D control value class [1]: H (more than 50% control value)
Test C control value class (Alternaia brassicicola): H (more than 50% control value)
Test H control value class [2]: H (more than 50% control value)
Test E control value class (Puccinia recondita): H (more than 50% control value)

CCOc1cc(F)c(-c2c(C(OC)C(C)C)cc(Cl)c(=O)n2CC)c(F)c1 (centres unmarked) [compound 72]
Test G control value class (Plasmopara viticola): H (more than 50% control value)
Test B control value class (Botrytis cinerea): H (more than 50% control value)
Test A control value class (Magnaporthe grisea): H (more than 50% control value)
Test F control value class (Phytophthora infestans): L (50% or less control value)
Test D control value class [1]: H (more than 50% control value)
Test C control value class (Alternaia brassicicola): H (more than 50% control value)
Test H control value class [2]: H (more than 50% control value)
Test E control value class (Puccinia recondita): H (more than 50% control value)

CCn1c(-c2c(F)cc(OC)cc2F)c(C(=O)C(C)C)cc(Cl)c1=O [compound 73]
Test G control value class (Plasmopara viticola): H (more than 50% control value)
Test B control value class (Botrytis cinerea): H (more than 50% control value)
Test A control value class (Magnaporthe grisea): H (more than 50% control value)
Test F control value class (Phytophthora infestans): L (50% or less control value)
Test D control value class [1]: H (more than 50% control value)
Test C control value class (Alternaia brassicicola): H (more than 50% control value)
Test H control value class [2]: H (more than 50% control value)
Test E control value class (Puccinia recondita): H (more than 50% control value)

CCn1c(-c2c(F)cc(OC)cc2F)c(C(C)(C)C)cc(Cl)c1=O [compound 74]
Test G control value class (Plasmopara viticola): H (more than 50% control value)
Test B control value class (Botrytis cinerea): H (more than 50% control value)
Test A control value class (Magnaporthe grisea): H (more than 50% control value)
Test F control value class (Phytophthora infestans): L (50% or less control value)
Test D control value class [1]: L (50% or less control value)
Test C control value class (Alternaia brassicicola): H (more than 50% control value)
Test H control value class [2]: H (more than 50% control value)
Test E control value class (Puccinia recondita): H (more than 50% control value)

CCOc1cc(F)c(-c2c(C(C)(C)C)cc(Cl)c(=O)n2CC)c(F)c1 [compound 75]
Test G control value class (Plasmopara viticola): L (50% or less control value)
Test B control value class (Botrytis cinerea): H (more than 50% control value)
Test A control value class (Magnaporthe grisea): L (50% or less control value)
Test F control value class (Phytophthora infestans): L (50% or less control value)
Test D control value class [1]: L (50% or less control value)
Test C control value class (Alternaia brassicicola): H (more than 50% control value)
Test H control value class [2]: H (more than 50% control value)
Test E control value class (Puccinia recondita): H (more than 50% control value)

CCn1c(-c2c(F)cc(OC)cc2F)c(C(C)(C)C)cc(Br)c1=O [compound 76]
Test G control value class (Plasmopara viticola): L (50% or less control value)
Test B control value class (Botrytis cinerea): H (more than 50% control value)
Test A control value class (Magnaporthe grisea): H (more than 50% control value)
Test F control value class (Phytophthora infestans): L (50% or less control value)
Test D control value class [1]: L (50% or less control value)
Test C control value class (Alternaia brassicicola): H (more than 50% control value)
Test H control value class [2]: H (more than 50% control value)
Test E control value class (Puccinia recondita): H (more than 50% control value)

Cn1c(-c2c(F)cc(F)cc2F)c(C(C)(C)C)cc(Cl)c1=O [compound 77]
Test G control value class (Plasmopara viticola): L (50% or less control value)
Test B control value class (Botrytis cinerea): H (more than 50% control value)
Test A control value class (Magnaporthe grisea): L (50% or less control value)
Test F control value class (Phytophthora infestans): L (50% or less control value)
Test D control value class [1]: H (more than 50% control value)
Test C control value class (Alternaia brassicicola): H (more than 50% control value)
Test H control value class [2]: L (50% or less control value)
Test E control value class (Puccinia recondita): H (more than 50% control value)

Cn1c(-c2c(F)cc(F)cc2F)c(C(C)(C)C)cc(Br)c1=O [compound 78]
Test G control value class (Plasmopara viticola): L (50% or less control value)
Test B control value class (Botrytis cinerea): H (more than 50% control value)
Test A control value class (Magnaporthe grisea): H (more than 50% control value)
Test F control value class (Phytophthora infestans): L (50% or less control value)
Test D control value class [1]: H (more than 50% control value)
Test C control value class (Alternaia brassicicola): H (more than 50% control value)
Test H control value class [2]: H (more than 50% control value)
Test E control value class (Puccinia recondita): H (more than 50% control value)

COc1cc(F)c(-c2c(C(C)(C)C)cc(Cl)c(=O)n2C)c(F)c1 [compound 79]
Test G control value class (Plasmopara viticola): L (50% or less control value)
Test B control value class (Botrytis cinerea): H (more than 50% control value)
Test A control value class (Magnaporthe grisea): H (more than 50% control value)
Test F control value class (Phytophthora infestans): L (50% or less control value)
Test D control value class [1]: H (more than 50% control value)
Test C control value class (Alternaia brassicicola): H (more than 50% control value)
Test H control value class [2]: H (more than 50% control value)
Test E control value class (Puccinia recondita): H (more than 50% control value)

CCn1c(-c2c(F)cccc2F)c(CN(C)C(C)C)cc(Cl)c1=O [compound 80]
Test G control value class (Plasmopara viticola): L (50% or less control value)
Test B control value class (Botrytis cinerea): H (more than 50% control value)
Test A control value class (Magnaporthe grisea): L (50% or less control value)
Test F control value class (Phytophthora infestans): H (more than 50% control value)
Test D control value class [1]: L (50% or less control value)
Test C control value class (Alternaia brassicicola): L (50% or less control value)
Test H control value class [2]: H (more than 50% control value)
Test E control value class (Puccinia recondita): L (50% or less control value)

CCn1c(-c2c(F)cc(F)cc2F)c(C(OC)N(C)C(C)C)cc(Cl)c1=O (centres unmarked) [compound 81]
Test G control value class (Plasmopara viticola): L (50% or less control value)
Test B control value class (Botrytis cinerea): H (more than 50% control value)
Test A control value class (Magnaporthe grisea): H (more than 50% control value)
Test F control value class (Phytophthora infestans): L (50% or less control value)
Test D control value class [1]: L (50% or less control value)
Test C control value class (Alternaia brassicicola): L (50% or less control value)
Test H control value class [2]: L (50% or less control value)
Test E control value class (Puccinia recondita): L (50% or less control value)

COc1cc(F)c(-c2c(C(C)(C)C)cc(Br)c(=O)n2C)c(F)c1 [compound 82]
Test G control value class (Plasmopara viticola): H (more than 50% control value)
Test B control value class (Botrytis cinerea): H (more than 50% control value)
Test A control value class (Magnaporthe grisea): L (50% or less control value)
Test F control value class (Phytophthora infestans): L (50% or less control value)
Test D control value class [1]: L (50% or less control value)
Test C control value class (Alternaia brassicicola): H (more than 50% control value)
Test H control value class [2]: H (more than 50% control value)
Test E control value class (Puccinia recondita): H (more than 50% control value)
